The text below walks through data of patent publication US12329799B2, “Peptidyl inhibitors of calcineurin-NFAT interaction” (Ohio State Innovation Foundation, priority 2018, dated 2025).

Data set [1] can be described thus: Caco-2 permeability assay. In kind it is in vitro ADME. The settings on record: human, Caco-2, pH 7.4. Here is the method:
(§1) Caco-2 permeability assay. To assay the permeability of test compounds by Caco-2 cell model, Caco-2 cells were cultured to confluency before being trypsinized and seeded onto filter transwell inserts at a density of 30,000 cells/well in DMEM medium. Cells were cultured in a humidified atmosphere with 5% CO2 at 37° C. After overnight attachment, cell medium was replaced with fresh medium at both apical and basolateral sides every other day. The cell monolayers are ready for the assay 20 days post seeding. […] The dosing solution at 10 μM was obtained by diluting 10 mM stock solution in HBSS medium (pH 7.4, 25 mM HEPES) freshly before the assay. Terfenadine (25 ng/mL) and Tolbutamide (50 ng/mL) were added into dosing solution as internal standards. […] The culture medium from either the basolateral side (plate B) or apical side (plate A) were aspirated and then rinsed with HBSS medium once. Afterwards, the dosing medium was added to either basolateral or apical side. Following the incubation, 100 microliter samples from both sides were harvested at time 0 and time 90 min. Samples were quenched with acetonitrile/methanol (1:1 v/v), centrifuged, and analyzed on a Shimadzu reversed-phase HPLC and Sciex API4500 Q trap instrument.
(§2) Permeability parameters were calculated using the following equations and shown in Table 10: Papp=(Conc.receiver,90 min*Volumereceiver)/(Time*Membrane Area*Conc.donor,0 min) Efflux Ratio=Papp[B to A]/Papp[A to B]
On the technique in general: Caco-2 cells form a polarised layer with tight junctions and transporters.

Data set [2] concerns Caco-2 cell monolayers. In words: Caco-2 permeability assay. In kind it is in vitro ADME. Here is the method: as §1, §2
Data set [3] in a line: in vitro. In kind it is in vitro ADME. More on the design: dose or concentration left out as unconfirmed. The settings on record: mouse, plasma; for fraction unbound at 5 h: pH 7.4. Here is the method: (§3) Plasma binding was assessed using mouse plasma obtained from in-life studies. CNI103 was diluted to […] in pre-warmed mouse plasma. The solution was added to the left chamber of a commercial plate based RED (rapid equilibrium dialysis) device. Isotonic sodium phosphate buffer (100 mM sodium phosphate, 100 mM sodium chloride, pH 7.4) was added to the outer chamber of the RED device and the plate was incubated at 37° C. for five hours. Aliquots of the buffer and the plasma were withdrawn before and after the incubation and the concentrations of free and bound test compound were determined by LC/MS/MS analysis. To test for plasma stability, the dosing solution was also incubated at 37° C. for 5 hours and the concentration of CNI103 was determined by LC/MS/MS analysis as described above.
(§4) The calculation of percentage binding is calculated using the following equations and the results are presented in Table 13: Binding %=(Cpe−Cb)/Cpe×100 • Cpe=Conc. of test compound in plasma at equilibrium • Cb=Conc. of test compound in buffer at equilibrium % Stability of test compound=(Conc. of stability sample/Conc. of time zero sample)×100 % Recovery=(Cpe+Cb)/Conc. of stability sample×100

The subject of data set [4] is plasma protein. In words: in vitro. In kind it is in vitro ADME. The arrangement: dose or concentration left out as unconfirmed. To be noted: mouse, pH 7.4. Here is the method:
as §3, §4

The test system of data set [5] is HeLa cells. The settings on record: 100% = equal cargo concentration in cytosol and extracellular medium; cited from earlier work.
For data set [6], the system named is NFAT-mediated luciferase expression in Jurkat cells. In words: NFAT luciferase assay in Jurkat cells. To be noted: qualitative. In kind it is cell-based. The method, then: In a separate experiment, CNI93 was also tested against Jurkat cells expressing a luciferase gene under the transcriptional control of NFAT.
NFAT Luciferase Assay. Jurkat-Lucia cells maintained in RPMI-1640 supplemented with 10% FBS, 1% penicillin/streptomycin (v/v/v) and 100 μg/mL normocin were harvested after a passage with 50 μg/mL selective antibiotic Zeocin at 300×RCF for 5 min. Cells were resuspended in warm RPMI-1640 with antibiotics but without FBS to a final density of 2×10^6 cells/mL and seeded into white-on-white cell-culture treated 96-well plates. To each well was added 10 μL of DPBS containing compounds which dilute to the desired concentrations followed by 170 μL of cell suspension […] and incubated at 37° C. for 2 h. The cells were induced by treatment with 50 ng/mL PMA and 3 μg/mL ionomycin, Ca^2+ salt in FBS to achieve a final FBS concentration of 10% in each well (with FBS only as control). The plate was incubated for an additional 4 h at 37° C., when 20 μL of each sample was withdrawn and mixed with 50 μL of Quanti-Luc assay solution. The luminescence of the mixture was immediately measured on a Tecan Infinite M1000 plate reader.

For data set [7], the system named is Jurkat cells. In words: MTT assay, Jurkat. In kind it is cell-based. Here is the method:
(§5) MTT Proliferation Assay. HeLa, Jurkat-Lucia, or H441 cells were seeded into a 96-well microplate (5000 cells per well) in full growth media and incubated at 37° C. overnight. A serial dilution of each compound was prepared in DPBS and then added to each well. The treated cells were incubated at 37° C. with 5% CO2 for 72 h. Following compound treatment, 10 μL of MTT stock solution was added to each well. After an additional 4 h at 37° C., 100 μL of SDS-HCl solubilizing solution was added to each well and the plate was returned to the incubator overnight at 37° C. A Tecan Infinite M1000 Pro microplate reader was used the following morning to measure the absorbance of the formazan product at 565 nm.
A general note: Tetrazolium dyes change colour on reduction, which living cells bring about.

A short description of data set [8]: Serum stability assay. In kind it is in vitro ADME. The settings on record: 25% human serum, 37° C., 24 h, read-out: degradation in human serum. Here is the method: Serum Stability Assay. Diluted human serum (25%) (H4522 human serum, Sigma) was centrifuged at 15,000 rpm for 10 min, and the supernatant was collected. A peptide stock solution was diluted into the supernatant to a final concentration of 5 μM and incubated at 37° C. At various time points (0-24 h), 200-μL aliquots were withdrawn and mixed with 100 μL of 15% trichloroacetic acid and incubated at 4° C. overnight. The final mixture was centrifuged at 15,000 rpm for 10 min in a microcentrifuge, and the supernatant was analyzed by reversed-phase HPLC equipped with a C18 column. The amount of remaining peptide (%) was determined by integrating the area underneath the peptide peak (monitored at 214 nm) and comparing with that from the peptide at time 0.

Data set [9] relates to HeLa cells. The data set can be described thus: MTT assay, HeLa. In kind it is cell-based. To be noted: MTT, 72 h. Here is the method:
as §5
Potential cytotoxicity of CNI101 (SEQ ID NO: 206) and CNI103 (SEQ ID NO: 208) was tested on HeLa cells by the MTT proliferation assay. HeLa cells were seeded into a 96-well microplate (5000 cells per well) in full growth media and incubated at 37° C. overnight. A serial dilution of each inhibitor was prepared in DPBS and then added to each well. The treated cells were incubated at 37° C. with 5% CO2 for 72 h. Following compound treatment, 10 μL of MTT stock solution was added to each well. After an additional 4 h at 37° C., 100 μL of SDS-HCl solubilizing solution was added to each well and the plate was returned to the incubator overnight at 37° C. A Tecan Infinite M1000 Pro microplate reader was used the following morning to measure the absorbance of the formazan product at 565 nm.

The target of data set [10] is T1, Calcineurin (GST-CN) (Homo sapiens, UniProt Q08209).
T1 construct: made in house; host or cells: E. coli BL21
The data set can be described thus: FA-based competition with FITC-labeled peptide 14 for binding to CN. To be noted: unlabeled; inhibition of binding of peptide 14 to CN. Here is the method:
Serial dilutions of competitor peptides were prepared in PBS with 0.01% Trition-X100 and then added to the incubation solution and equilibrated at RT with gentle mixing for 1 h. Samples were pipetted into 384-well black microplates and FP signal was measured using a TECAN Infinite M1000 plate reader and analyzed using GraphPad PRISM v.6.

Positions of bridges follow the written chain, without caps; N, C: chain ends. Non-standard residues stand in square brackets, D forms with d. Residues, ends and D or L forms follow the SMILES beside them. Chains are numbered I, II in the order given. *: point of attachment. Benzoyl(2,3-Cl2) = O=C(c1cccc(Cl)c1Cl)*; 2Nal = N[C@@H](Cc1ccc2ccccc2c1)C(=O)O; Tle = CC(C)(C)[C@H](N)C(=O)O; AEEA = NCCOCCOCC(=O)O Some results are limits rather than exact numbers.

T1 sequence (Q08209 2-347 limits assumed): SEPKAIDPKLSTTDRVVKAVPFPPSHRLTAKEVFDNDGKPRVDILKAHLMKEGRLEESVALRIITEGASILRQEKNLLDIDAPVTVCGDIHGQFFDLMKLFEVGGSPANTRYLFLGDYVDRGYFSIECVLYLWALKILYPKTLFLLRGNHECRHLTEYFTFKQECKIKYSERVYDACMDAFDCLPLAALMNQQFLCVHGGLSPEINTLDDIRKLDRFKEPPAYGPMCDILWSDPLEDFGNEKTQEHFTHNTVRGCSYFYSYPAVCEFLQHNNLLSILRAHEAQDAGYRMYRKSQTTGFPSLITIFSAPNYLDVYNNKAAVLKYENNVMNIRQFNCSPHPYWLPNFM

In the case of `CC(C)NCC(O)COc1cccc2ccccc12` (stereo not drawn) [Propranolol, reference compound], the apparent permeability from basolateral to apical (Papp B→A) at 90 min, 10 μM in data set [1] (N = 2, 10 μM, 90 min) was determined as 26 ×10⁻⁶ cm/s. Moreover, the efflux ratio at 90 min, 10 μM in [1] (Papp[B to A]/Papp[A to B]) is 0.7. The “Pgp Substrate” value in data set [2] is given as “No”.

In the case of `CC(=O)CC(c1ccccc1)c1c(O)c2ccccc2oc1=O` (stereo not drawn) [Warfarin], in data set [3], the fraction remaining at 5 h turned out to be 101% and the unbound share (fraction unbound) at 5 h was 0.086. In addition, in [4], the recovery at 5 h turned out to be 103%.

In the case of “cyclic (fΦRrRrQ) (cyclo([dF][2Nal]R[dR]R[dR]Q); SMILES N=C(N)NCCC[C@@H]1NC(=O)[C@H](Cc2ccc3ccccc3c2)NC(=O)[C@@H](Cc2ccccc2)NC(=O)[C@H](CCC(N)=O)NC(=O)[C@@H](CCCNC(=N)N)NC(=O)[C@H](CCCNC(=N)N)NC(=O)[C@@H](CCCNC(=N)N)NC1=O) [CPP9]”, the “absolute cytosolic delivery efficiency” value in data set [5] was 62%.

`CC[C@H](C)[C@H](NC(=O)[C@@H](NC(=O)c1cccc(Cl)c1Cl)C(C)(C)C)C(=O)N[C@H](C(=O)N[C@H](C(=O)N[C@H](C(=O)N[C@@H](CCC(N)=O)C(=O)N[C@@H](Cc1c[nH]cn1)C(=O)N[C@H](CC(C)C)C(=O)N[C@@H](CO)C(=O)NCCOCCOCC(=O)N[C@@H](CCCCNC(=O)CC[C@@H]1NC(=O)[C@@H](CCCNC(=N)N)NC(=O)[C@H](CCCNC(=N)N)NC(=O)[C@@H](CCCNC(=N)N)NC(=O)[C@H](CCCNC(=N)N)NC(=O)[C@H](Cc2ccc3ccccc3c2)NC(=O)[C@@H](Cc2ccccc2)NC1=O)C(N)=O)[C@@H](C)O)[C@@H](C)CC)C(C)(C)C` [CNI95] (I: {Benzoyl(2,3-Cl2)}-[Tle]I[Tle]ITQH[dL]S[AEEA]K-NH2 / II: cyclo([2Nal]R[dR]R[dR]E[dF]); amide I:11-II:6 (inferred); ring closure inferred): the “attenuation of NFAT activity in Jurkat cells relative to CNI93” value in data set [6] is on record as “vastly superior”. The “concentrations decreasing cell viability” value in [7] and in data set [9] was not below 25 µM each time. Further, the metabolised at 24 h, 5 μM in data set [8] was approximately 12%. Also, the “higher potency than CNI93 in FA-based competition assay” value in data set [10] is reported as approximately 5 fold.

Regarding `CCOc1ccc(NC(C)=O)cc1` [Phenacetine], in data set [3], the fraction remaining at 5 h was 73.8% and the free fraction (fraction unbound) at 5 h is 0.635. The recovery at 5 h in data set [4] amounted to 73.3%.

As to `C=C[C@H]1C[N@@]2CC[C@H]1C[C@@H]2[C@@H](O)c1ccnc2ccc(OC)cc12` [Quinidine], in [3], the amount remaining at 5 h came to 107% and the unbound share (fraction unbound) at 5 h was 0.243. In data set [4], this compound displayed a recovery at 5 h of 102%.

Broadly, the Papp B→A is how fast a substance crosses the layer from the basolateral side. One may read the efflux ratio as a quotient of directional permeabilities that is used to spot active efflux. For orientation: fraction unbound means free concentration divided by total concentration.
